Measured values published in US20230078702A1, “USE OF MITOXANTRONE HYDROCHLORIDE LIPOSOME FOR TREATING BREAST CANCER” (CSPC ZHONGQI PHARMACEUTICAL TECHNOLOGY (SHIJIAZHUANG) CO., …, priority 2020, published 2023).
Where a name gives a salt, the structure may show the parent alone.

Key:
[1] = tested on: patients with advanced recurrent or metastatic breast cancer; test: Efficacy evaluation (RECIST 1.1) in randomized, open-labeled, active controlled clinical study; type: in vivo, human; parameters: disease control rate (PR+SD): concentration or dose not given beside the values
Description: A tumor assessment was performed at baseline.
During the treatment period, the efficacy evaluation was performed once every two cycles; in addition, when the efficacy evaluation result was PR or CR, the efficacy should be radiologically confirmed after 4 weeks. After the completion of the treatment, the evaluation was performed every 3 months until disease progression. Tumor evaluation was performed according to RECIST 1.1 criteria.
Primary efficacy endpoint: objective response rate (ORR), referring to the ratio of subjects reaching PR and CR.
Secondary efficacy endpoint: progression-free survival (PFS), referring to the time from the start of randomization to disease progression or death.

[2] = tested on: patients with advanced recurrent or metastatic breast cancer; conditions: human, in vivo
Description: The study is a randomized, open-labeled, active controlled, single center study to evaluate the safety and efficacy of the mitoxantrone hydrochloride liposome injection in patients with advanced recurrent or metastatic breast cancer.
Investigational product: mitoxantrone hydrochloride liposome injection (PLM60 (10 mg/10 mL/vial)) was added to 250 mL of 5% glucose at a dose of 20 mg/m^2 and was administered intravenously over 1 h.
Reference product: mitoxantrone hydrochloride injection (5 mg/5 mL/vial, manufactured by Sichuan Sunnyhope Pharmaceutical, Inc., supplied by CSPC ZHONGQI Pharmaceutical Technology (Shijiazhuang) Co., Ltd., Lot No. 1501201) was added to 100 mL of 5% glucose injection at a dose of 14 mg/m^2 and was administered intravenously over 30 min.
The safety assessment indicators included: vital signs, adverse events, laboratory tests (complete blood test, routine urinalysis, blood biochemistry, electrocardiogram, echocardiogram), and early withdrawal. Safety assessment criteria: NCI-CTC 4.0.
For the drug mitoxantrone, the most serious adverse event is cardiotoxicity. Clinical studies and practical observations have shown that the cardiotoxicity caused by anthracyclines are mainly progressive and irreversible. Especially anthracyclines can easily cause cardiac damage at first use. Cardiotoxicity is a common concern for clinicians since it is a long-term cumulative dose-limiting toxicity. The incidence of increased troponin T and the incidence of increased brain natriuretic peptide were used as indices for examining cardiotoxicity in this trial. The change of the cardiac troponin T level can reflect myocardium damage with high sensitivity; brain natriuretic peptide is a polypeptide hormone secreted by cardiomyocytes in the heart ventricles in response to stretching caused by increased ventricular blood volume and increased ventricular pressure.

SMILES: O=C1c2c(O)ccc(O)c2C(=O)c2c(NCCNCCO)ccc(NCCNCCO)c21 [Control group, mitoxantrone hydrochloride]
- Progression-free survival rate ([1]; 3 months, FAS (N = 60)): 26.7%
- Progression-free survival rate ([1]; 3 months, PPS (N = 58)): 28.6
- Progression-free survival rate ([1]; 6 months, FAS (N = 60), hydrochloride): 20.0%
- Progression-free survival rate ([1]; 6 months, FAS (N = 60), listed as control group, hydrochloride): 20%
- Progression-free survival rate ([1]; 6 months, PPS (N = 58)): 21.4
- Progression-free survival rate ([1]; 12 months, FAS (N = 60)): 0%
- Progression-free survival rate ([1]; 12 months, PPS (N = 58)): 0
- disease control rate (PR+SD) ([1]; 30 subjects per group): 30%
- objective response rate (ORR) ([1]; 30 subjects per group): 6.7%
- Best overall response NA, number of subjects ([1]; FAS (N = 60)): 2
- Best overall response NA, percent of subjects ([1]; FAS (N = 60)): (6.7%)
- Best overall response PD, number of subjects ([1]; FAS (N = 60)): 19
- Best overall response PD, percent of subjects ([1]; FAS (N = 60)): (63.3%)
- Best overall response PR, percent of subjects ([1]; FAS (N = 60)): (6.7%)
- Best overall response SD, number of subjects ([1]; FAS (N = 60)): 7
- Best overall response SD, percent of subjects ([1]; FAS (N = 60)): (23.3%)
- Median PFS ([1]; FAS (N = 60)): 1.86 month
- Number of events (%) (PFS), percent ([1]; FAS (N = 60)): 83.3%
- Number of events (PFS) ([1]; FAS (N = 60)): 25
- Best overall response PR, number of subjects ([1]; FAS (N = 60), liposome 20 mg/m^2 or injection 14 mg/m^2 i.v. once every 4 weeks): 2
- Best overall response NA, number of subjects ([1]; PPS (N = 58)): 0
- Best overall response NA, percent of subjects ([1]; PPS (N = 58)): (0.0) %
- Best overall response PD, number of subjects ([1]; PPS (N = 58)): 19
- Best overall response PD, percent of subjects ([1]; PPS (N = 58)): (67.9%)
- Best overall response PR, number of subjects ([1]; PPS (N = 58)): 2
- Best overall response PR, percent of subjects ([1]; PPS (N = 58)): (7.1%)
- Best overall response SD, number of subjects ([1]; PPS (N = 58)): 7
- Best overall response SD, percent of subjects ([1]; PPS (N = 58)): (28.6%)
- Median PFS ([1]; PPS (N = 58)): 1.86 month
- Number of events (%) (PFS), percent ([1]; PPS (N = 58)): 82.14%
- Number of events (PFS) ([1]; PPS (N = 58)): 23
- Anemia, number of subjects [2]: 14
- Decreased neutrophil count, number of subjects [2]: 29
- Decreased platelet count, number of subjects [2]: 16
- Decreased white blood cell count, number of subjects [2]: 29
- Fever, number of subjects [2]: 3
- Incidence of fever [2]: (10.0%)
- Incidence of increased alanine aminotransferase [2]: (26.70%)
- Incidence of increased blood bilirubin [2]: (20.00%)
- Incidence of skin hyperpigmentation [2]: 3.3%
- Increased alanine aminotransferase, number of subjects [2]: 8
- Increased aspartate aminotransferase, number of subjects [2]: 16
- Increased blood bilirubin, number of subjects [2]: 6
- Increased brain natriuretic peptide, number of subjects [2]: 10
- Increased conjugated bilirubin, number of subjects [2]: 17
- Increased troponin T, number of subjects [2]: 11
- overall incidence rate of adverse events [2]: 100%
